Read-outs that look alike come from different tables or passages of the source.
Tests used:
[1] = system: Prostate cancer PC3 cells; experiment: Cell viability assay, CellTiter-Glo, PC3; settings: Homo sapiens, PC-3, 48 h, pH 6.5, read-out: fraction (%) of viable cells
Procedure: (§1) Indicated cells were treated with indicated drug combinations for 48 h or as indicated in conditions imitating tumor environment—RPMI supplemented with 10% FCS and 20 mM PIPES, adjusted to pH 6.5. After treatment, cells were analyzed for cell viability: • using CellTiter-Blue® Cell Viability Assay, Promega according to manufacturer recommendations. For each treatment, the fraction (%) of viable cells are indicated. Untreated viable cells were set to 100%. Average data of 2 independent experiments are presented. Each independent experiment contained 4 biological replicates for each condition. • using CellTiter-Glo® Cell Viability Assay, Promega according manufacturer recommendations. For each treatment the fraction (%) of viable cells are indicated. Untreated viable cells were set to 100%. Each measurement represents the mean value of 4 biological replicates for each condition.

Melanoma A375 cells = experiment: Cell viability assay, CellTiter-Glo, A375; settings: Homo sapiens, A-375, 48 h, pH 6.5, read-out: fraction (%) of viable cells
Procedure: as §1

[2] = system: Breast cancer MDA-MB-231 cells; experiment: Cell viability assay, CellTiter-Blue, MDA-MB-231; settings: Homo sapiens, MDA-MB-231, 48 h, pH 6.5, read-out: fraction (%) of viable cells
Procedure: as §1

Lung cancer H1975 cells = experiment: Cell viability assay, CellTiter-Blue, H1975; settings: Homo sapiens, NCI-H1975, 48 h, pH 6.5, read-out: fraction (%) of viable cells
Procedure: as §1

[3] = system: Pancreas cancer Bxpc3 cells; experiment: Cell viability assay, CellTiter-Glo, Bxpc3; settings: Homo sapiens, BXPC-3, 48 h, pH 6.5, read-out: fraction (%) of viable cells
Procedure: as §1

Colon cancer DLD1 cells [4] = experiment: Cell viability assay, CellTiter-Glo, DLD1
Procedure: as §1

Mouse melanoma B16F10 = experiment: Cell viability assay, CellTiter-Glo, B16F10
Procedure: as §1

Colon cancer DLD1 cells [5] = experiment: Cell viability assay, CellTiter-Blue, DLD1; settings: Homo sapiens, DLD-1, 72 h, pH 6.5, read-out: fraction (%) of viable cells
Procedure: as §1

Lung cancer H1975 = experiment: Cell viability assay, CellTiter-Glo, H1975; settings: Homo sapiens, NCI-H1975, 72 h, pH 6.5, read-out: fraction (%) of viable cells
Procedure: as §1

Wnt signaling pathway = assay type: cell-based; settings: cancer cell lines (FIG. 2A), 6 mM Metformin
Procedure: (§2) For gene expression measurement, cells were seeded in 6 well plates. On the following day, cells were treated with 6 mM Metformin for 48 h in normal RPMI medium supplemented with 10% FCS. Cells were harvested using Trypsin/EDTA and divided in up to 3 aliquots. A first aliquot was used for RNA preparation using RNeasy kit (Qiagen) and subsequent quantitative reverse transcription-PCR (qRT-PCR) analysis with LC480 LightCycler (Roche). A second aliquot was extracted with Saponin buffer (0.05% Saponin, 1 mM MgCl2, 1×TBS, 2 mM ME, 1× protein inhibitor cocktail (Roche) for obtaining cytoplasmic protein fraction. This fraction was used for b-catenin protein detection. Third aliquot was extracted with Triton lysis buffer ((TBS (50 mM Tris pH7.4, 150 mM NaCl, 2.7 mM KCl), 1% Triton X-100, 2 mM β-mercaptoethanol (ME), 1 mM MgCl2, 10 mM sodium pyrophosphate, 10 mM NaF, 1× proteinase inhibitor cocktail). This aliquot was used for Sox4 and a-tubulin (control) protein detection. For second and third aliquots 20-35 μl of buffer was used for 500 000 cells. After centrifugation extracts were used for Western blot analysis.
Experiment was done as in example 3. […] CHOP protein was detected in Triton lysis buffer extract.

H1975 cells = assay type: cell-based; settings: H1975 cells expressing EC-GFP, Metformin for 48 hours
Description: FIG. 1: Treatment with Metformin and combined preparations causes an intracellular pH drop in cancer cell lines. Intracellular pH measurements were done in cells expressing a pH sensitive variant of GFP (EC-GFP). Live cells were imaged at 405 nm and 488 nm excitation wavelengths to record control and pH-sensitive emissions, correspondingly. Eight biological replicates were done for each treatment. Error bars correspond to mean values±s.d.; P≤0.0001. a. […] Confocal microscopy of H1975 and HEK293 live cells expressing EC-GFP treated with Metformin for 48 hours. To rule out a possibility that GFP signal fading is due to degradation, after exposure to the drug, cells were transferred to media with pH 8.8 supplemented with 5 μM Nigericin for 30 minutes before re-imaging (Metformin pH 8.8 rescue). b, c. […] Intracellular pH measurements were done after cells were treated alone or in combination with Rotenone or/and Nigericin, and with Papaverine or/and Salinomycin for 27 or 48 hours in pH 6.5 buffer, as indicated.
Intracellular pH in indicated cancer cell lines and non-cancer 293T cells was measured using cell lines stabile expressing pH sensitive EC-GFP at two different excitation wave length to obtain 488 nm/405 nm ratios. […] 488/405 ratios were quantified using ImageJ (NIH) software.

Sox4 [6] = assay type: cell-based; settings: non-malignant HEK293t cells, Metformin 72 hours
Procedure: as §2
Experiments were done as in example 3. Cells were densely seeded on 6-well plates. […] For non-cancer HEK293Tcells, non modified RPMI medium supplemented with 10% FCS was used. Cells were extracted only in Triton lysis buffer (as in example 3) and analyzed in Western Blot.

Sox4 [7] = assay type: cell-based; settings: Metformin 72 hours
Procedure: Cells were densely seeded on 6-well plates. Starting on the following day, cells were treated with indicated drug combinations for 48 h in conditions imitating tumor environment: RPMI supplemented with 10% FCS and 20 mM PIPES, adjusted to pH 6.5. For non-cancer HEK293Tcells, non modified RPMI medium supplemented with 10% FCS was used. Cells were extracted only in Triton lysis buffer (as in example 3) and analyzed in Western Blot.
Cells were treated with combined preparations (Nigericin 10 nM, Rotenone 5 nM, Papaverine HCl 1 μm; Salinomycin 10 nM) with or without addition of NAC (N-acetyl cysteine) 1 mM, DOX (Doxycycline) and Minocycline 20 μM, Trolox (soluble form of vitamin E) 100 μM.

[8] = Homo sapiens, DLD-1, 72 h, pH 6.5, read-out: fraction (%) of viable cells

Q: Which results are given for `CO[C@@H]1C[C@@H](C[C@H]2CC[C@H](C)[C@H]([C@@H](C)C(=O)O)O2)O[C@]2(O[C@](C)([C@H]3CC[C@@](C)([C@@H]4O[C@@H]([C@H]5O[C@@](O)(CO)[C@H](C)C[C@@H]5C)C[C@@H]4C)O3)C[C@H]2C)[C@@H]1C` [Nigericin]?
A: viability at 0.005 µM [1]: 31%; viability at 0.01 µM [1]: 0%; viability at 0.00125 µM (Melanoma A375 cells): 58%; viability at 0.0025 µM (Melanoma A375 cells): 7%; viability at 0.0025 µM [2]: 98%; viability at 0.005 µM [2]: 101%; viability at 0.0025 µM (Lung cancer H1975 cells): 93%; viability at 0.005 µM (Lung cancer H1975 cells): 95%; viability at 0.005 µM [3]: 39%; viability at 0.01 µM [3]: 35%; viability at 0.005 µM (Colon cancer DLD1 cells [4]; [8]): 107%; viability at 0.01 µM (Colon cancer DLD1 cells [4]; [8]): 103%

Q: With `C=C[C@@]1(C)CC(=O)[C@]2(O)[C@@]3(C)[C@@H](O)CCC(C)(C)[C@@H]3[C@H](O)[C@H](OC(C)=O)[C@@]2(C)O1` [Forskolin, forskolin] as the compound, how does the viability at 10 µM (Mouse melanoma B16F10; Mus musculus, B16-F10, 48 h, pH 6.5, read-out: relative values of cell viability, Forskolin 10 μM alone, pH 6.5) read?
A: 78%

Q: How did the viability at 0.004 µM (Mouse melanoma B16F10; Mus musculus, B16-F10, 48 h, pH 6.5, read-out: fraction (%) of viable cells, Maduramicin 4.00 nM, Phenformin 0.00 μM, pH 6.5) turn out when `CO[C@@H]1[C@@H](OC)[C@H](C)[C@@](O)(CC(=O)O)O[C@H]1[C@H](C)[C@H]1O[C@@]2(CC[C@@](C)([C@H]3CC[C@@](C)([C@@H]4O[C@@H]([C@H]5O[C@](C)(O)[C@H](C)C[C@@H]5C)C[C@@H]4O[C@@H]4C[C@H](OC)[C@@H](OC)[C@H](C)O4)O3)O2)C[C@H](O)[C@H]1C` [Maduramicin] was run?
A: 111%

Q: How did the viability at 0.004 µM (Mouse melanoma B16F10; Mus musculus, B16-F10, 48 h, pH 6.5, read-out: fraction (%) of viable cells, Monensin 4.00 nM, Metformin 0.00 μM, pH 6.5) turn out when `CC[C@@]1([C@@H]2O[C@@H]([C@H]3O[C@@](O)(CO)[C@H](C)C[C@@H]3C)C[C@@H]2C)CC[C@H]([C@]2(C)CC[C@]3(C[C@H](O)[C@@H](C)[C@@H]([C@@H](C)[C@@H](OC)[C@H](C)C(=O)O)O3)O2)O1` [Monensin] was run?
A: 111%

Q: And the viability at 0.004 µM (Mouse melanoma B16F10; Mus musculus, B16-F10, 48 h, pH 6.5, read-out: fraction (%) of viable cells, Monensin 4.00 nM, Phenformin 0.00 μM, pH 6.5)?
A: 95%

Q: What about the viability at 0.005 µM (Colon cancer DLD1 cells [5]) of the same compound?
A: 88%

Q: What about the viability at 0.01 µM (Colon cancer DLD1 cells [5]) of the same compound?
A: 72%

Q: And the viability at 0.02 µM (Colon cancer DLD1 cells [5])?
A: 55%

Q: What about the viability at 0.005 µM (Lung cancer H1975) of the same compound?
A: 55%

Q: And the “fraction (%) of viable cells” value (Colon cancer DLD1 cells [4]; human, 72 h, 5 nM, pH 6.5)?
A: 112%

Q: `Nc1ncnc2c1nc(Sc1ccc(Cl)cc1)n2[C@@H]1O[C@@H]2COP(=O)([O-])O[C@H]2[C@H]1O.[Na+]` [8-CPT-cAMP, 8-(4-Chlorophenylthio)-adenosine-3′,5′-cyclic monophosphate] was tested. Which “relative values of cell viability” value (Mouse melanoma B16F10; 8-CPT-cAMP 100 μM alone, 48 h, pH 6.5) did it give?
A: 86%

Q: Which viability at 4 µM (Mouse melanoma B16F10; Mus musculus, B16-F10, 48 h, pH 6.5, read-out: fraction (%) of viable cells, Phenformin 4 μM, Maduramicin 0.00 nM, pH 6.5 (Table 12)) does the source give for `[H]/N=C(/N)N/C(=N/[H])NCCc1ccccc1` [Phenformin] here?
A: 82%

Q: And the viability at 4 µM (Mouse melanoma B16F10; Mus musculus, B16-F10, 48 h, pH 6.5, read-out: fraction (%) of viable cells, Phenformin 4 μM, Monensin 0.00 nM, pH 6.5 (Table 11))?
A: 82%

Q: And the viability at 8 µM (Mouse melanoma B16F10; Mus musculus, B16-F10, 48 h, pH 6.5, read-out: fraction (%) of viable cells, Phenformin 8 μM, Maduramicin 0.00 nM, pH 6.5 (Table 12))?
A: 76%

Q: What about the viability at 8 µM (Mouse melanoma B16F10; Mus musculus, B16-F10, 48 h, pH 6.5, read-out: fraction (%) of viable cells, Phenformin 8 μM, Monensin 0.00 nM, pH 6.5 (Table 11)) of the same compound?
A: 76%

Q: What about the viability at 16 µM (Mouse melanoma B16F10; Mus musculus, B16-F10, 48 h, pH 6.5, read-out: fraction (%) of viable cells, Phenformin 16 μM, Maduramicin 0.00 nM, pH 6.5 (Table 12)) of the same compound?
A: 56%

Q: What about the viability at 16 µM (Mouse melanoma B16F10; Mus musculus, B16-F10, 48 h, pH 6.5, read-out: fraction (%) of viable cells, Phenformin 16 μM, Monensin 0.00 nM, pH 6.5 (Table 11)) of the same compound?
A: 56%

Q: `C=C(C)[C@H]1Cc2c(ccc3c2O[C@@H]2COc4cc(OC)c(OC)cc4[C@@H]2C3=O)O1` [Rotenone] was tested. Which viability at 0.005 µM [1] did it give?
A: 45%

Q: And the viability at 0.01 µM [1]?
A: 4%

Q: What about the viability at 0.02 µM [1] of the same compound?
A: 1%

Q: What about the viability at 0.00125 µM (Melanoma A375 cells) of the same compound?
A: 96%

Q: What about the viability at 0.0025 µM (Melanoma A375 cells) of the same compound?
A: 91%

Q: What about the viability at 0.005 µM (Melanoma A375 cells) of the same compound?
A: 75%

Q: What about the viability at 0.0025 µM [2] of the same compound?
A: 98%

Q: What about the viability at 0.005 µM [2] of the same compound?
A: 102%

Q: And the viability at 0.01 µM [2]?
A: 99%

Q: What about the viability at 0.02 µM [2] of the same compound?
A: 81%

Q: What about the viability at 0.0025 µM (Lung cancer H1975 cells) of the same compound?
A: 103%

Q: What about the viability at 0.005 µM (Lung cancer H1975 cells) of the same compound?
A: 104%

Q: And the viability at 0.01 µM (Lung cancer H1975 cells)?
A: 110%

Q: And the viability at 0.02 µM (Lung cancer H1975 cells)?
A: 84%

Q: What about the viability at 0.005 µM [3] of the same compound?
A: 104%

Q: What about the viability at 0.01 µM [3] of the same compound?
A: 89%

Q: And the viability at 0.02 µM [3]?
A: 59%

Q: What about the viability at 0.005 µM (Colon cancer DLD1 cells [5]) of the same compound?
A: 87%

Q: And the viability at 0.005 µM (Colon cancer DLD1 cells [4]; [8])?
A: 96%

Q: What about the viability at 0.01 µM (Colon cancer DLD1 cells [4]; [8]) of the same compound?
A: 89%

Q: And the viability at 0.02 µM (Colon cancer DLD1 cells [4]; [8])?
A: 67%

Q: Which results are given for `CN(C)C(=N)N=C(N)N` [Metformin]?
A: wnt signaling (Axin2 mRNA, cytoplasmic b-catenin) (Wnt signaling pathway): wnt signaling inhibitor; intracellular pH (H1975 cells): causes intracellular acidification; viability at 750 µM (Mouse melanoma B16F10; Mus musculus, B16-F10, 48 h, pH 6.5, read-out: fraction (%) of viable cells, Metformin 750 μM, Monensin 0.00 nM, pH 6.5): 80%; viability at 1500 µM (Mouse melanoma B16F10; Mus musculus, B16-F10, 48 h, pH 6.5, read-out: fraction (%) of viable cells, Metformin 1500 μM, Monensin 0.00 nM, pH 6.5): 84%; viability at 3000 µM (Mouse melanoma B16F10; Mus musculus, B16-F10, 48 h, pH 6.5, read-out: fraction (%) of viable cells, Metformin 3000 μM, Monensin 0.00 nM, pH 6.5): 9%; expression of Sox4 (Sox4 [6]): has no effect on Sox4; expression of endogenous Sox4 (Sox4 [7]; DLD1 and HCT116 cells): inhibits expression of endogenous Sox4; Wnt-inducible Sox4 expression (Sox4 [7]; H1703 and H1299 cells, Wnt3a conditioned media 48 hours): inhibits Wnt-inducible Sox4; expression of endogenous Sox4 (Sox4 [7]; H1975 cells): inhibits expression of endogenous Sox4; viability at 94 µM (Lung cancer H1975): 84%; viability at 188 µM (Lung cancer H1975): 70%; viability at 375 µM (Lung cancer H1975): 45%

From patent US20190321311A1, “Cancer Treatment by Simultaneous Targeting Energy Metabolism and Intracellular pH” (Deutsches Krebsforschungszentrum, priority 2016, published 2019)
